Reference: paper PMC9572513, “Novel Unsymmetric 3,5-Bis(benzylidene)-4-piperidones That Display Tumor-Selective Toxicity” (Molecules, 2022)
Counter-ions that a name gives are not always drawn. Like-named read-outs stand apart in the source and are kept apart here.

Experiments:
[1] = system: HSC-2 squamous cell carcinoma cells; assay: MTT cytotoxicity against HSC-2 squamous cell carcinoma; type: cell-based, human; conditions: for CC50: Homo sapiens, read-out: HSC-2 CC50; for HSC-2 SI: average CC50 HGF/HPLF/HPC divided by CC50 HSC-2
Description: (§1) The method for evaluating 2a–f and 3a–e against human oral squamous cell carcinoma (OSCC) cell lines (Ca9-22, HSC-2, HSC-3, HSC-4) and human non-malignant oral cells [human gingival fibroblast (HGF), human periodontal ligament fibroblast (HPLF), and human pulp cell (HPC)] have been reported previously, except the length of time of this bioassay was extended from 24 h to 48 h. In brief, different quantities of the compounds were incubated with the cells in Dulbecco’s modified eagle medium (DMEM), which was supplemented with 10% FBS and antibiotics. The cell viability was determined by the 3-(4,5-dimethylthiazol-2-yl)-2,5-diphenyl-2H-tetrazolium bromide (MTT) method as summarized previously (Figure 4).

[2] = MTT cytotoxicity against human periodontal ligament fibroblast (HPLF); type: cell-based; conditions: human, human periodontal ligament fibroblasts (HPLF), non-malignant oral cells
Description: as §1

[3] = system: HSC-3 squamous cell carcinoma cells; assay: MTT cytotoxicity against HSC-3 squamous cell carcinoma; type: cell-based, human; conditions: for CC50: Homo sapiens, read-out: HSC-3 CC50; for HSC-3 SI: average CC50 HGF/HPLF/HPC divided by CC50 HSC-3
Description: as §1

[4] = system: Ca9-22 squamous cell carcinoma cells; assay: MTT cytotoxicity against Ca9-22 squamous cell carcinoma; type: cell-based, human; conditions: for CC50: Homo sapiens, read-out: Ca9-22 CC50; for Ca9-22 SI: average CC50 HGF/HPLF/HPC divided by CC50 Ca9-22
Description: as §1

[5] = Average over HGF, HPLF and HPC non-malignant oral cells; type: cell-based, human; conditions: human, HPLF and HPC non-malignant oral cells (average), average of HGF
Description: as §1

[6] = MTT cytotoxicity against human gingival fibroblast (HGF); type: cell-based; conditions: human, human gingival fibroblasts (HGF), non-malignant oral cells
Description: as §1

[7] = MTT cytotoxicity against human pulp cell (HPC); type: cell-based; conditions: human, human pulp cells (HPC), non-malignant oral cells
Description: as §1

[8] = system: HSC-4 squamous cell carcinoma cells; assay: MTT cytotoxicity against HSC-4 squamous cell carcinoma; type: cell-based, human; conditions: for CC50: Homo sapiens, read-out: HSC-4 CC50; for HSC-4 SI: average CC50 HGF/HPLF/HPC divided by CC50 HSC-4
Description: as §1

[9] = system: Ca9-22, HSC-2, HSC-3, and HSC-4 squamous cell carcinoma cell lines; assay: Average over Ca9-22, HSC-2, HSC-3 and HSC-4 OSCC cell lines; type: cell-based, human; conditions: for CC50: read-out: Average CC50; for Average SI: average of SI for four OSCC cell lines
Description: as §1

[10] = system: CRL1790 non-malignant colon cells; assay: Cytotoxicity against CRL1790 non-malignant colon cells; type: cell-based; conditions: Homo sapiens, 48 h
Description: (§2) The culture medium was supplemented with 10% heat-inactivated fetal bovine serum (FBS) and 1% penicillin–streptomycin antibiotics. The time of the bioassays was 48 h. The determinations were undertaken in triplicate on three different occasions.

HT29 colon cancer cells = assay: Cytotoxicity against HT29 colon cancer cells; type: cell-based, human; conditions: for IC50: 48 h; for HT29 SI (selectivity index): IC50 CRL1790 / IC50 HT29
Description: as §2

[11] = system: HCT116 and HT29 colon cancer cells; assay: Average over HCT116 and HT29 colon cancer cells; type: cell-based, human; conditions: for IC50: Homo sapiens, average of HCT116 and HT29, unit printed only for the single cell-line columns; for Average SI: average of SI for HCT116 and HT29; for PSE (potency-selectivity expression): reciprocal of average IC50 x average SI x 100, colon cells
Description: as §2

[12] = system: HCT116 colon cancer cells; assay: Cytotoxicity against HCT116 colon cancer cells; type: cell-based, human; conditions: for IC50: Homo sapiens, HCT-116, 48 h, 48 h; for HCT116 SI (selectivity index): IC50 CRL1790 / IC50 HCT116
Description: as §2

HL-60 cells = assay: Differential DNA staining (DNS) cytotoxicity assay, HL-60 cells; type: cell-based; conditions: Homo sapiens
Description: (§3) The method used for generating the data of human acute lymphocytic leukemia (CEM) and human acute promyelocytic leukemia (HL-60) cells in Table 4 has been described previously. In brief, the cells were cultured in media supplemented with 10% FBS and antibiotics. […] The CC50 values of the compounds listed in Table 4 were obtained by linear interpolation equations [28, 29].

CEM cells = assay: Differential DNA staining (DNS) cytotoxicity assay, CEM cells; type: cell-based; conditions: Homo sapiens, CCRF-CEM
Description: as §3

[13] = Homo sapiens, average of four OSCC cell lines

Row | SMILES | IC50 [11] [µM] | CC50 ([1]; HSC-2, 48 h, MTT) [µM] | HSC-2 SI [1] | CC50 at 48 h [2] [µM] | CC50 ([3]; HSC-3, 48 h, MTT) [µM] | HSC-3 SI [3] | CC50 ([4]; Ca9-22, 48 h, MTT) [µM] | Ca9-22 SI [4] | CC50 at 48 h [5] [µM] | CC50 at 48 h [6] [µM] | CC50 at 48 h [7] [µM] | CC50 ([8]; HSC-4, 48 h, MTT) [µM] | HSC-4 SI [8] | CC50 [9, 13] [µM] | Average SI [9] | IC50 [10] [µM] | IC50 (HT29 colon cancer cells; Homo sapiens, HT-29, 48 h) [µM] | HT29 SI (selectivity index) (HT29 colon cancer cells) | Average SI [11] | PSE (potency-selectivity expression) [11] | other results
1 | COc1cccc2c1C(=O)c1c(O)c3c(c(O)c1C2=O)C[C@@](O)(C(=O)CO)C[C@@H]3O[C@H]1C[C@H](N)[C@H](O)[C@H](C)O1 [DXR, doxorubicin, reference compound] | – | 0.2 | >50.0 | > 10 | 0.24 | >41.7 | 0.33 | >30.3 | > 10 | > 10 | > 10 | 0.14 | >71.4 | 0.23 | >48.4 | – | – | – | – | – | –
2 | COc1ccc(/C=C2\CNC/C(=C\c3ccc(O)c(CN4CCCCC4)c3)C2=O)cc1OC [Compound 2d, 3-[3-(1-Piperidinylmethyl)-4-hydroxybenzylidene]-5-(3,4-dimethoxybenzylidene)-4-piperidone dihydrochloride] | 0.5 | 0.61 | <6.18 | 2.7 | 0.39 | <9.67 | 0.42 | <8.98 | < 3.77 | 7 | < 1.6 | 0.75 | – | < 1 | 7.47 | 23.5 ± 0.26 | < 1 | 43.5 | 47.9 | 9580 | IC50 (HT29 colon cancer cells): 0.54 ± 0.17 µM; CC50 ([9]; average of four OSCC cell lines): 0.54 µM; PSE (potency-selectivity expression) ([9]; reciprocal of average CC50 (OSCC) x average SI x 100): > 1000
3 | COc1ccc(/C=C2\CNC/C(=C\c3ccc(O)c(CN4CCCC4)c3)C2=O)cc1OC [Compound 2c, 3-[3-(1-Pyrrolidinylmethyl)-4-hydroxybenzylidene]-5-(3,4-dimethoxybenzylidene)-4-piperidone dihydrochloride] | 2.51 | 14 | 3.83 | 48.9 | 11.7 | 4.58 | 8.2 | 6.54 | 53.6 | 68.6 | 43.3 | 14.1 | 3.80 | 12 | 4.69 | 26.4 ± 0.28 | 1.57 ± 0.54 | 16.8 | 12.2 | 486 | IC50 [12]: 3.44 ± 0.42 µM; HCT116 SI (selectivity index) [12]: 7.67; CC50 (HL-60 cells; HL-60, 24 h, read-out: CC50 HL-60 Cells 24 h): > 10 µM; CC50 (HL-60 cells; HL-60, 48 h, read-out: CC50 HL-60 Cells 48 h): > 10 µM; CC50 (CEM cells; 24 h, read-out: CC50 CEM Cells 24 h): > 10 µM; CC50 (CEM cells; 48 h, read-out: CC50 CEM Cells 48 h): 7.92 ± 0.98 µM
4 | N[C@@H](Cc1ccc(N(CCCl)CCCl)cc1)C(=O)O [MPN, melphalan, reference compound] | – | – | >11.8 | > 200 | – | >9.62 | – | >4.68 | > 200 | > 200 | > 200 | – | >19.2 | – | >11.3 | – | – | – | – | – | CC50 ([1]; HSC-2, 48 h): 17 µM; CC50 ([3]; HSC-3, 48 h): 20.8 µM; CC50 ([4]; Ca9-22, 48 h): 42.7 µM; CC50 ([8]; HSC-4, 48 h): 10.4 µM; CC50 ([9]; Homo sapiens): 22.7 µM
5 | COc1ccc(/C=C2\CNC/C(=C\c3ccc(O)c(CN4CCOCC4)c3)C2=O)cc1OC [Compound 2e, 3-[3-(4-Morpholinomethyl)-4-hydroxybenzylidene]-5-(3,4-dimethoxybenzylidene)-4-piperidone dihydrochloride] | 3.56 | 88.5 | >2.26 | > 200 | 73.2 | >2.73 | 41.8 | >4.79 | > 200 | > 200 | > 200 | – | – | 69.3 | 3.12 | 27.4 ± 0.42 | 3.75 ± 0.78 | 7.31 | 7.72 | 217 | IC50 [12]: 3.37 ± 0.68 µM; HCT116 SI (selectivity index) [12]: 8.13
6 | O=c1[nH]cc(F)c(=O)[nH]1 [Compound 5-FU, 5-fluorouracil, reference compound] | 8.97 | 359 | >2.79 | > 1000 | 450 | >2.22 | 141 | >7.09 | > 1000 | > 1000 | > 1000 | 7.8 | >128 | > 240 | >35.0 | 17.6 ± 0.82 | 14.4 ± 0.65 | 1.22 | 3.10 | 34.6 | IC50 [12]: 3.54 ± 0.72 µM; HCT116 SI (selectivity index) [12]: 4.97

Second part, led by results:

Row | IC50 [11] [µM] | SMILES | CC50 ([1]; HSC-2, 48 h, MTT) [µM] | HSC-2 SI [1] | CC50 at 48 h [2] [µM] | CC50 ([3]; HSC-3, 48 h, MTT) [µM] | HSC-3 SI [3] | CC50 ([4]; Ca9-22, 48 h, MTT) [µM] | Ca9-22 SI [4] | CC50 at 48 h [5] [µM] | CC50 at 48 h [6] [µM] | CC50 at 48 h [7] [µM] | CC50 ([8]; HSC-4, 48 h, MTT) [µM] | HSC-4 SI [8] | CC50 [9, 13] [µM] | Average SI [9] | IC50 [10] [µM] | IC50 (HT29 colon cancer cells; Homo sapiens, HT-29, 48 h) [µM] | HT29 SI (selectivity index) (HT29 colon cancer cells) | Average SI [11] | PSE (potency-selectivity expression) [11] | other results
7 | 2.31 | Cc1ccc(/C=C2\CNC/C(=C\c3ccc(O)c(CN4CCN(C)CC4)c3)C2=O)cc1 [Compound 3d] | 2.2 | 4.64 | 10.1 | 1.91 | 5.34 | 1.3 | 7.85 | 10.2 | 14.6 | 6 | 2.29 | 4.45 | 1.93 | 5.57 | 22.6 ± 0.59 | 0.71 ± 0.29 | 31.8 | 18.8 | 814 | IC50 [12]: 3.91 ± 1.69 µM; HCT116 SI (selectivity index) [12]: 5.78
8 | 0.9 | COc1ccc(/C=C2\CNC/C(=C\c3ccc(O)c(CN4CCN(C)CC4)c3)C2=O)cc1 [Compound 3c] | 1.1 | 5.00 | 4.9 | 1.05 | 5.24 | 0.66 | 8.33 | 5.5 | 8.8 | 2.8 | 1.18 | 4.66 | 1 | 5.81 | 13.2 ± 0.36 | 0.76 ± 0.26 | 17.4 | 15.1 | 1678 | IC50 [12]: 1.04 ± 0.48 µM; HCT116 SI (selectivity index) [12]: 12.7
